Where “and” joins values, the source holds several entries; their conditions need not be identical. Equal values may be shown once. Read-outs that look alike come from different tables or passages of the source. One block for each molecule: values may come before it.
Columns and labels:
[1] = tested on: lung cancer cell line A549; assay: tumor growth inhibition, A549; format: cell-based, Human; settings: Homo sapiens, A549, A549 (Lung) cells
Source text: (§1) Growth Inhibition. […] T1 values≤T0 values were designated as T, cytotoxicity.

GL261 glioma cells = assay: intracranial GL261 glioma survival study; format: in vivo, C57BL/6 mice; settings: 5 mg/kg weekly ×1 oral; C57BL/6 mice, intracranial GL261
Method: (§2) A brain tumor mouse xenograft study was conducted comparing KX2-361 and KX2-391 (KXO1) to Temodar®. The studies were conducted in C57BL/6 mice. GL261 glioma cells (1×10^5 in 5 μl DMEM) were implanted intracranial coordinates: bregma, lateral 2.0 mm, anterior 1.2 mm, 3.0 mm depth dura. Treatment was initiated 3 days post implantation. The groups were as follows (all doses in 100 μl H2O):
The median survival range and the log-rank (Mantel-Cox) statistical test results comparing the survival distributions of the samples.

[2] = body weight in GL261 glioma survival study; format: in vivo; settings: Temodar 5 mg/kg, C57BL/6 mice
Method: as §2
FIGS. 49A-E show the weight gain in each of the C57BL/6 mice in the different treatment groups. The average weight at endpoint for each of the treatment groups is shown below in Table 30. FIG. 50 is a graph showing the average weights over a 40-day period for each of the treatment groups.

[3] = plasma pharmacokinetics after oral administration; format: in vivo, Male CD-1 mice
Method: (§3) [drawing 435] are described below. Plasma concentrations were measured in mice after oral and IV administration. Both oral and IV doses were formulated in saline. Male CD-1 mice were dosed after an overnight fast and fed 4 hours post-dose.
[…] The plasma concentration of 139 was measured at 0 min, 30 min, 1 h, 3 h, 6 h, 12 h, and 24 h time points. As discussed above for the i.v. administration, the analyte was extracted and analyzed by HPLC/mass spec.

[4] = plasma pharmacokinetics after IV administration; format: in vivo, Male CD-1 mice; settings: single IV dose 5 mg/kg
Method: as §3
A single IV dose of 139 was administered to male CD-1 mice intravenously at 5 mg/kg (dose volume of 3 mL/kg). The plasma concentration of 139 was measured at 0 min, 5 min, 15 min, 30 min, 1 h, 3 h, 6 h, and 12 h time points. A liquid-liquid extraction procedure was used to isolate the analyte and internal standard from mice plasma. After the extract was dried and reconstituted, the sample was directly injected into a liquid chromatography/mass spectrometry (LC/MS) system. HPLC conditions were as follows: • HPLC System: Shimadzu SCL-10 System • Analytical Column: Aquasil C18 5 μm 50×2.1 mm column. • Column Temperature: Ambient temperature • Autosampler Temperature: Ambient temperature • Mobile Phase A) 10 mM Ammonium formate in water (pH4). • B) Acetonitrile. • Flow Rate: 0.6 mL/min • Injection Volume: 4 μL • Gradient:
• Mass spectrometry conditions were as follows: • Instrument: ABI Sciex API 4000 • Mode: ESI+ • Experiment: MRM (multiple reaction monitoring) • Transitions: 139: m/z 480.1→127.1 (Rt=3.8 minute)

[5] = tested on: wild-type aywl strain of HBV; assay: HBV primary assay (HepG2-2.2.15 antiviral assay); format: cell-based; settings: Test Concentration 1 μM
Method: The HBV primary assay developed was conducted similarly to that described by Korba et al., (Antiviral Res. 15: 217-228 (1991) and Antiviral Res. 19: 55-70 (1992)) with the exception that viral DNA detection and quantification have been improved and simplified (Korba et al., Antiviral Res. 19: 55-70 (1992)).
Compound 38 (KX2-377), Compound 136 (KX2-393), and Compound 137 (KX2-394) were evaluated for potential anti-HBV activity using a single high-test concentration of compounds in the standardized HepG2-2.2.15 antiviral assay. The HepG2-2.2.15 is a stable cell line producing high levels of the wild-type aywl strain of HBV. Briefly, HepG2-2.2.15 cells were plated in 96-well plates. Only the interior wells were utilized to reduce “edge effects” observed during cell culture; the exterior wells are filled with complete medium to help minimize sample evaporation. On the following day, the confluent monolayer of HepG2-2.2.15 cells was washed and the medium is replaced with complete medium containing test concentrations of a test article in triplicate. 3TC was used as the positive control, while media alone was added to cells as the untreated control. Three days later the culture medium was replaced with fresh medium containing the appropriately diluted drug. Six days following the initial administration of the test compound, the cell culture supernatant was collected, treated with pronase and DNAse and then used in a real-time quantitative TaqMan PCR assay for direct measurement of HBV DNA copies using an ABI Prism 7900 sequence detection system (Applied Biosystems, Foster City, Calif.).
The antiviral activity of each test compound was calculated by comparing its HBV DNA copies against that of the untreated control cells (100%) to derive percent inhibition level. After removing the supernatant, the remaining cells were subject to CellTiter 96 Aqueous One (Promega, Madison, Wis.) solution cell proliferation assay (MTS-based) to measure cell viability. Cytotoxicity of the compound was determined by comparing its cell viability with that of the untreated cell control to derive percentage of the cell control.

c-Src 3T3 cells = assay: BrdU cell growth inhibition, c-Src 3T3; format: cell-based, mouse; settings: Mus musculus; c-Src 3T3 (c-Src527F/NIH3T3) cells; read-out: GI50
Method in brief: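 c-Src 3T3 cells on poly-D-lysine plates in DMEM with 2% FBS, L-glutamine, pyruvate and 10 mM HEPES. Compounds came from 20 mM DMSO stocks diluted in DMEM/10% FBS. Proliferation was read by colorimetric BrdU-incorporation ELISA, and GI50 was extrapolated from growth relative to time-zero and untreated controls.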

isolated Src = isolated Src (Homo sapiens, UniProt P12931); assay: titration against isolated Src; format: biochemical; settings: titration data
isolated FAK = isolated FAK (Homo sapiens, UniProt Q05397); assay: titration against isolated FAK; format: biochemical; settings: titration data
SKOV-3 (Ovarian) = assay: growth inhibition (BrdU), SKOV-3; format: cell-based, Human; settings: Homo sapiens, SK-OV-3; SKOV-3 (Ovarian) cells
Source text: as §1

L3.6pl cells = assay: growth inhibition (BrdU), L3.6pl; format: cell-based, human; settings: Homo sapiens, L3.6pl, L3.6pl (Pancreas) cells, single agent
Source text: L3.6pl cells are previously described in Trevino et al. Am J Pathol.

[6] = male, CD-1, mouse, single oral dose 25 mg/kg

Sequence of isolated Src (P12931 whole entry): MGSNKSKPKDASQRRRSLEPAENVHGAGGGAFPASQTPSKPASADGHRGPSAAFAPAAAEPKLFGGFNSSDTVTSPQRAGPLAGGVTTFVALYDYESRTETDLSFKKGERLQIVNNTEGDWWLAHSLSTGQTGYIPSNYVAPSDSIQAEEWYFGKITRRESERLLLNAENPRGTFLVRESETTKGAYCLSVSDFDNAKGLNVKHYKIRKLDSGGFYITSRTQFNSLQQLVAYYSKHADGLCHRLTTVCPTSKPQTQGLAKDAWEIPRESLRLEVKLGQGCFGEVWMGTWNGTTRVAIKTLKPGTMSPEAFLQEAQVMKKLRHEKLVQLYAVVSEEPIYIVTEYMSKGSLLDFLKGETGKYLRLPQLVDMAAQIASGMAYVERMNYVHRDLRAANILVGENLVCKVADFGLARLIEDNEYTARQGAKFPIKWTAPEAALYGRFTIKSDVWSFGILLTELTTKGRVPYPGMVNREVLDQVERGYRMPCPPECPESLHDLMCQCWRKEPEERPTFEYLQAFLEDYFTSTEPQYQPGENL
Sequence of isolated FAK (Q05397 whole entry): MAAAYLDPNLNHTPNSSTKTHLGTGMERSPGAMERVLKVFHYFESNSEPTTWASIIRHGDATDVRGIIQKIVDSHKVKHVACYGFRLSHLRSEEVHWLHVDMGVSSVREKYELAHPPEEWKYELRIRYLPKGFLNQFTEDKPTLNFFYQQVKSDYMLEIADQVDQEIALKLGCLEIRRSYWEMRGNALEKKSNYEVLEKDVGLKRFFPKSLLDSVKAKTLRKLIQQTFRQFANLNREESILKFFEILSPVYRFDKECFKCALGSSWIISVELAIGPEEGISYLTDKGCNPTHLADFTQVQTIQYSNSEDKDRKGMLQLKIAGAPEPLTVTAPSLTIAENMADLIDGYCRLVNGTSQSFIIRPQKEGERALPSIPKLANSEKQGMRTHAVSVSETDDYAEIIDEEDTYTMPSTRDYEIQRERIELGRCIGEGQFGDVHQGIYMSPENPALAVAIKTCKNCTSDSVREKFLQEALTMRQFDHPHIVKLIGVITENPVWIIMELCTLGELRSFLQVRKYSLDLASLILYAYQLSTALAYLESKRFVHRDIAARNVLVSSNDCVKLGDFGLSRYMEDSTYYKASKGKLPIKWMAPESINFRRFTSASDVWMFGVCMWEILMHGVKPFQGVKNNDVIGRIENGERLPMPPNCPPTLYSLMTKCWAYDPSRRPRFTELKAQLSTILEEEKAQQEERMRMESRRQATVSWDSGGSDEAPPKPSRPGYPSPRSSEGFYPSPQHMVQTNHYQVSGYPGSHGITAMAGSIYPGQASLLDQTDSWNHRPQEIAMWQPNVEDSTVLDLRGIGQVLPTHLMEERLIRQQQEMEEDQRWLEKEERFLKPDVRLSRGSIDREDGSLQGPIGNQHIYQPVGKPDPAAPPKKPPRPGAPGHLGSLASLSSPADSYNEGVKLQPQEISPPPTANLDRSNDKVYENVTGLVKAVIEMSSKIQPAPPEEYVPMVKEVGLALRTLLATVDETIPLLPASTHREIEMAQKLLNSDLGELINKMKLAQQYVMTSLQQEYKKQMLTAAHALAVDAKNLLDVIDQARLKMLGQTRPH

GI50 [1]: 1740 nM
Compound: C#Cc1cccc(Nc2ncnc3cc(OCCOC)c(OCCOC)cc23)c1 [Tarceva, erlotinib, reference compound]

Compound: Cn1nnc2c(C(N)=O)ncn2c1=O [Temodar ®, Temodar®, reference compound]
Median survival (GL261 glioma cells): 29
survival Range (GL261 glioma cells): 26-29
Average weight at endpoint [2]: 13.3 g

bioavailability ([3]; male, CD-1, mouse, (Mean AUC0-∞ oral/oral dose)/(Mean AUC0-∞ IV/IV dose)×100%, 25 mg/kg oral, 5 mg/kg IV, read-out: Estimated bioavailability): 34.4%
concentration at 30 min ([3]; male, CD-1, mouse, po, 25 mg/kg, single PO dose 25 mg/kg, 30 min, read-out: Plasma Concentrations, Mean): 318 ng/mL
concentration at 1 h ([3]; male, CD-1, mouse, po, 25 mg/kg, single PO dose 25 mg/kg, 1 hr, read-out: Plasma Concentrations, Mean): 142 ng/mL
concentration at 3 h ([3]; male, CD-1, mouse, po, 25 mg/kg, single PO dose 25 mg/kg, 3 hr, read-out: Plasma Concentrations, Mean): 330 ng/mL
concentration at 6 h ([3]; male, CD-1, mouse, po, 25 mg/kg, single PO dose 25 mg/kg, 6 hr, read-out: Plasma Concentrations, Mean): 119 ng/mL
concentration at 12 h ([3]; male, CD-1, mouse, po, 25 mg/kg, single PO dose 25 mg/kg, 12 hr, read-out: Plasma Concentrations, Mean): 56.6 ng/mL
concentration at 24 h ([3]; male, CD-1, mouse, po, 25 mg/kg, single PO dose 25 mg/kg, BLQ = 0, read-out: Plasma Concentrations, Mean): 15.6 ng/mL
concentration at 24 h ([3]; male, CD-1, mouse, po, 25 mg/kg, single PO dose 25 mg/kg, read-out: Plasma Concentrations, Group A, B, C): 31.2 ng/mL
AUC(0-inf) [3, 6]: 2440 ng·h/mL
AUC(0-t) [3, 6]: 2300 ng·h/mL
Cmax [3, 6]: 330 ng/mL
MRT [3, 6]: 7.7 h
Tmax [3, 6]: 3 h
half-life ([3]; male, CD-1, mouse, single oral dose 25 mg/kg, estimated from 6, 12, 24 hours): 6.2 h
% AUC Extrap ([3]; single oral dose 25 mg/kg): 5.7%
AUC0-∞/Dose ([3]; single oral dose 25 mg/kg): 97.6 kg·ng·h/mL/mg
concentration at 5 min ([4]; male, CD-1, mouse, plasma, iv, 5 mg/kg, 5 min, read-out: Plasma Concentrations, Group A, B, C): 1200 ng/mL
concentration at 5 min ([4]; male, CD-1, mouse, plasma, iv, 5 mg/kg, 5 min, read-out: Plasma Concentrations, Mean): 1250 ng/mL
concentration at 15 min ([4]; male, CD-1, mouse, plasma, iv, 5 mg/kg, 15 min, read-out: Plasma Concentrations, Group A, B, C): 273 ng/mL
concentration at 15 min ([4]; male, CD-1, mouse, plasma, iv, 5 mg/kg, 15 min, read-out: Plasma Concentrations, Mean): 329 ng/mL
concentration at 30 min ([4]; male, CD-1, mouse, plasma, iv, 5 mg/kg, 30 min, read-out: Plasma Concentrations, Group A, B, C): 500 ng/mL
concentration at 30 min ([4]; male, CD-1, mouse, plasma, iv, 5 mg/kg, 30 min, read-out: Plasma Concentrations, Mean): 382 ng/mL
concentration at 1 h ([4]; male, CD-1, mouse, plasma, iv, 5 mg/kg, 1 hr, read-out: Plasma Concentrations, Group A, B, C): 186 ng/mL
concentration at 1 h ([4]; male, CD-1, mouse, plasma, iv, 5 mg/kg, 1 hr, read-out: Plasma Concentrations, Mean): 178 ng/mL
concentration at 3 h ([4]; male, CD-1, mouse, plasma, iv, 5 mg/kg, 3 hr, read-out: Plasma Concentrations, Mean): 207 ng/mL
concentration at 6 h ([4]; male, CD-1, mouse, plasma, iv, 5 mg/kg, 6 hr, read-out: Plasma Concentrations, Mean): 43.2 ng/mL
concentration at 12 h ([4]; male, CD-1, mouse, plasma, iv, 5 mg/kg, BLQ = 0, read-out: Plasma Concentrations, Mean): 3.67 ng/mL
concentration at 12 h ([4]; male, CD-1, mouse, plasma, iv, 5 mg/kg, read-out: Plasma Concentrations, Group A, B, C): 11 ng/mL
AUC(0-inf) ([4]; male, CD-1, mouse, plasma): 1420 ng·h/mL
AUC(0-t) ([4]; male, CD-1, mouse, plasma): 1410 ng·h/mL
C0 ([4]; male, CD-1, mouse, plasma): 2420 ng/mL
MRT ([4]; male, CD-1, mouse, plasma): 2.3 h
clearance ([4]; male, CD-1, mouse, plasma): 58.7 mL/min/kg
half-life ([4]; male, CD-1, mouse, plasma, estimated from 3, 6, 12 hours): 1.6 h
Vd ([4]; male, CD-1, mouse, plasma, read-out: Vss): 8.15 L/kg
% AUC Extrap ([4]; plasma): 0.6%
AUC0-∞/Dose ([4]; plasma): 284.1 kg·ng·h/mL/mg
Plasma Concentrations, Group A, B, C ([4]; 5 min, 5 mg/kg): 1287 ng/mL and 1260 ng/mL
Plasma Concentrations, Group A, B, C ([4]; 15 min, 5 mg/kg): 306 ng/mL and 407 ng/mL
Plasma Concentrations, Group A, B, C ([4]; 30 min, 5 mg/kg): 367 ng/mL and 279 ng/mL
Plasma Concentrations, Group A, B, C ([4]; 1 hr, 5 mg/kg): 210 ng/mL and 137 ng/mL
Compound: CN1CCN(CCOc2ccc(-c3ccc(CC(=O)NCc4cccc(F)c4)cc3)c(F)c2)CC1 [Compound 139, 2-(2′-fluoro-4′-(2-(4-methylpiperazin-1-yl)ethoxy)biphenyl-4-yl)-N-(3-fluorobenzyl)acetamide]

Compound: Nc1ccn([C@@H]2CS[C@H](CO)O2)c(=O)n1 [Compound 3TC, 3TC, reference compound]
Antiviral Activity Percent inhibition of cell control [5]: 92.0%
Interpretation [5]: Active

IC50 (isolated Src): 5000 nM
IC50 (isolated FAK): > 48000 nM
Compound: CN1CCN(CCOc2ccc(-c3ccc(CC(=O)NCc4cccc(F)c4)nc3)c(F)c2)CC1 [KX2-394]
GI50 (c-Src 3T3 cells): 13 nM

GI50 (SKOV-3 (Ovarian)): 3.9 nM
Compound: CC(=O)O[C@H]1C(=O)[C@@]2(C)[C@H]([C@H](OC(=O)c3ccccc3)[C@]3(O)C[C@H](OC(=O)[C@H](O)[C@@H](NC(=O)c4ccccc4)c4ccccc4)C(C)=C1C3(C)C)[C@]1(OC(C)=O)CO[C@@H]1C[C@@H]2O [taxol, paclitaxel, reference compound]

Compound: Nc1ccn([C@@H]2O[C@H](CO)[C@@H](O)C2(F)F)c(=O)n1 [Gemcitabine, gemcitabine, reference compound]
GI50 (L3.6pl cells): 2 nM

Source: patent publication US10196357B2, “Biaryl compositions and methods for modulating a kinase cascade” (Athenex, Inc., priority 2007, dated 2019)
